Test results as given in patent US20260274876A1, “3-PYRROLIDINE-INDOLE DIMERS AS SEROTONERGIC AGENTS USEFUL FOR THE TREATMENT OF DISORDERS RELATED THERETO” (MINDSET PHARMA INC., priority 2022, published 2026).

Key:
[1] = biological target: T1, human 5-HT1A receptor (Homo sapiens, UniProt P08908); assay: Human 5-HT1A functional FLIPR assay (agonist mode); type: cell-based; set-up: expressed in transfected cells; conditions: h5-HT1A, curve fitting with activation (%) @ 10 mM with RFU (footnote)
T1 sequence (P08908 1-422): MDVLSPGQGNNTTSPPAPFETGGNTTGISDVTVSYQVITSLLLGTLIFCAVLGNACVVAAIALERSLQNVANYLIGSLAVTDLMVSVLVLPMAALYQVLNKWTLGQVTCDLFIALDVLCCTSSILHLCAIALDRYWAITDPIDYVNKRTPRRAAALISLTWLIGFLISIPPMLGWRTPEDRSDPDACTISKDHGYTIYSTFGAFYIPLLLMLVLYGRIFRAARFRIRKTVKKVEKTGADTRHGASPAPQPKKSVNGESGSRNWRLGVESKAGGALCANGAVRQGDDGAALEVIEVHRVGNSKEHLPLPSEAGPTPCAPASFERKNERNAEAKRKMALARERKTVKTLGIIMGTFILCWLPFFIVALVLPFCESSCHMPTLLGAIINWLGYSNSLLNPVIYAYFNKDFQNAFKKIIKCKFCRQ
Protocol: The potential excitatory effects of compounds targeting on 5-hydroxytryptamine receptor 1A (5-HT1A) under agonist mode was assessed.
HTR1A&Gα15-CHO cells were cultured in DMEM/F12 medium containing 10% dialyzed FBS, 1×penicillin-streptomycin and 600 μg/mL Hygromycin B. The cells were passaged about three times a week, maintained between ~30% to ~90% confluence.
• 1. The cell culture medium (DMEM/F12 medium containing 10% dialyzed FBS, 1×penicillin-streptomycin and 600 μg/mL Hygromycin B), TrypLE™ Express and DPBS was warmed to R.T. in advance. • 2. The cell culture medium was removed from flask. Washed cells with DPBS. • 3. 1 mL TrypLE™ Express was added to the flask, mixed well by gentle shaking and cells were incubated at 37° C. for a few minutes. • 4. The cells were checked for morphological change under microscope, the digestion was stopped by adding 2 mL cell culture medium to the flask when most of cells turned to round. • 5. The cell suspension was transferred into a 15 mL centrifuge tube, and then centrifuged at 1,200 rpm for 5 minutes. • 6. The supernatant was removed. The cell pellet were resuspended with 2 mL cell culture medium. • 7. The cell density were counted using cell counter. Only cells with >85% viability were used for the assay. • 8. Cells were diluted to 4×10^5/mL with cell culture medium. • 9. 30 μL/well cell suspensions were added into a 384-well cell plate (The cell density was 12,000 cells/well). • 10. The cell plate was incubated overnight at 37° C., 5% (v/v) CO2.
• 1. On the day of experiments, culture medium was removed from the cell plate. • 2. 10 μL of assay buffer (20 mM HEPES, in 1×HBSS, pH 7.4) was added to each well of the cell plate. • 3. 2×dye solution was prepared following the manufacture's instruction of the FLIPR® Calcium 6 assay kit: • i. The dye was diluted with assay buffer. • ii. probenecid was added to the final concentration of 5 mM. • iii. Vortexed vigorously for I-2 minutes, adjust pH to 7.4. • 4. 10 μL of 2×dye solution was added to each well of the cell plate. • 5. The cell plate was placed on plate shaker, followed by shaking at 600 rpm for 2 minutes. • 6. The plate was incubated at 37° C. for 2 hours followed by an additional 15-minute incubation at 25° C.
• 1. Serotonin was prepared to the concentration of 10 mM with DMSO, 3-folds serial dilutions were performed with DMSO. • 2. Prepare the test compound to the concentration of 10 mM with DMSO, preform 3-folds serial dilutions with DMSO. • 3. The compounds were added to a 384-well compound source plate. • 4. 90 nL/well of serial diluted compounds were transferred from source plate to a 384-well compound plate by using an Echo. • 5. 30 μL/well of assay buffer was added to the compound plate. • 6. The plate was mixed on-plate shaker for 2 minutes.
• 1. After the cells incubate with dye solution, the cell plate, compound plate containing 3×compounds and FLIPR tips were placed into FLIPR. • 2. 10 μL of 3×compounds were transferred from the compound plate to the cell plate by FLIPR. • 3. The plate was read for 160 sec with 1 sec interval to obtain the data of agonist mode.
• 1. The normalized fluorescence reading (RFU) was calculated as shown below, wherein Fmax and Fmin stand for maximum and minimum of calcium signal during defined time window:
[formula] • 2. EC50 was calculated by fitting RFU against log of compound concentrations with Hill equation using XLfit.

[2] = Plasma stability, dog; type: in vitro ADME; conditions: for half-life: 37° C.
Protocol: (§1) • a. […] The final concentration of organic solvents was 0.5%. The assay was performed in duplicated. • b.
(§2) All calculations were carried out using Microsoft Excel.

[3] = Plasma stability, rat; type: in vitro ADME
Protocol: as §1, §2

[4] = Plasma stability, mouse; type: in vitro ADME
Protocol: as §1, §2

[5] = Plasma stability, human; type: in vitro ADME
Protocol: as §1, §2

Structure (SMILES) | RFU@10 μM [1] | Remaining Percentage (%) 0 min [2] | half-life [2] | Remaining Percentage (%) 30 min [2] | Remaining Percentage (%) 60 min [2] | Remaining Percentage (%) 120 min [2] | Remaining Percentage (%) 180 min [2] | Remaining Percentage (%) 240 min [2] | Remaining Percentage (%) 0 min [3] | Remaining Percentage (%) 30 min [3] | Remaining Percentage (%) 60 min [3] | Remaining Percentage (%) 120 min [3] | Remaining Percentage (%) 180 min [3] | Remaining Percentage (%) 240 min [3] | Remaining Percentage (%) 0 min [4] | Remaining Percentage (%) 30 min [4] | Remaining Percentage (%) 60 min [4] | Remaining Percentage (%) 120 min [4] | Remaining Percentage (%) 180 min [4] | Remaining Percentage (%) 240 min [4] | further results
[2H]C([2H])(c1c[nH]c2cccc(O)c12)[C@H]1CCCN1C([2H])([2H])[2H] [Compound 13, (R)-3-((1-(methyl-d3)pyrrolidin-2-yl)methyl-d2)-1H-indol-4-ol] | 307 RFU | – | – | – | – | – | – | – | – | – | – | – | – | – | – | – | – | – | – | – | –
CN(C)CCc1c[nH]c2cccc(O)c12 [Psilocin, 4-hydroxy-N,N-dimethyltryptamine, reference compound] | 140 RFU | – | – | – | – | – | – | – | – | – | – | – | – | – | – | – | – | – | – | – | –
CN1CCC[C@@H]1Cc1c[nH]c2cccc(O)c12 [Compound 10, (R)-3-((1-methylpyrrolidin-2-yl)methyl)-1H-indol-4-ol] | 425 RFU | – | – | – | – | – | – | – | – | – | – | – | – | – | – | – | – | – | – | – | –
[2H]C([2H])(c1c[nH]c2cccc(OC(=O)CCCC(=O)Oc3cccc4[nH]cc(C([2H])([2H])[C@H]5CCCN5C([2H])([2H])[2H])c34)c12)[C@H]1CCCN1C([2H])([2H])[2H] [Compound I-22, bis(3-(((R)-1-(methyl-d3)pyrrolidin-2-yl)methyl-d2)-1H-indol-4-yl) glutarate] | 130 RFU | 100.00% | 24.9 min | 39.05% | 14.86% | 3.51% | 0.92% | 0.56% | 100.00% | 0.00% | 0.00% | 0.00% | 0.00% | 0.00% | 100.00% | 0.00% | 0.00% | 0.00% | 0.00% | 0.00% | Remaining Percentage (%) 0 min [5]: 100.00%; Remaining Percentage (%) 30 min [5]: 0.00%; Remaining Percentage (%) 60 min [5]: 0.00%; Remaining Percentage (%) 120 min [5]: 0.00%; Remaining Percentage (%) 180 min [5]: 0.00%; Remaining Percentage (%) 240 min [5]: 0.00%
CN1CCC[C@@H]1Cc1c[nH]c2cccc(OC(=O)CCCC(=O)Oc3cccc4[nH]cc(C[C@H]5CCCN5C)c34)c12 [Compound I-13, Bis(3-(((R)-1-methylpyrrolidin-2-yl)methyl)-1H-indol-4-yl) glutarate] | 87 RFU | 100.00% | 49.2 min | 67.21% | 44.90% | 15.17% | 8.32% | 3.48% | 100.00% | 0.00% | 0.00% | 0.00% | 0.00% | 0.00% | 100.00% | 0.00% | 0.00% | 0.00% | 0.00% | 0.00% | Remaining Percentage (%) 0 min [5]: 100.00%; Remaining Percentage (%) 30 min [5]: 0.00%; Remaining Percentage (%) 60 min [5]: 0.00%; Remaining Percentage (%) 120 min [5]: 0.00%; Remaining Percentage (%) 180 min [5]: 0.00%; Remaining Percentage (%) 240 min [5]: 0.00%
